Source: patent US20250042968A1, “EPHRIN LIGAND MIMETIC PEPTIDES FOR THE TREATMENT OF NEURODEGENERATIVE DISEASES” (University of Miami, priority 2022, published 2025)

Tests used:
[1] = tested on: isolated mouse RGCs; assay: Neurite sprouting and extension assay, short-term (48 h); assay type: cell-based
Procedure: Mouse retinal ganglion cells (RGC): Mouse R GCs were isolated as follows. Briefly, retinas from postnatal day 8-10 (p8-10) mouse pups were dissected and digested using a papain solution (16.5 U/mL) for 30 minutes at 37° C. Following dissociation, macrophage and endothelial cells were removed from the cell suspension by panning with the anti-macrophage antiserum (Accurate Chemical, Westbury, NY). Finally, RGCs were immunopanned in plates containing the antibody against Thy1.2 and were then released by incubation with trypsin solution. RGCs were grown on poly-L-lysine coated plates in serum-free Neurobasal media (Invitrogen, Carlsbad, CA), supplemented with B-27 supplement, CNTF (10 ng/ml), and BDNF (10 ng/ml).
mRGCs were used to analyze dendrite sprouting, axonal polarization and extension, and ephrin receptor phosphorylation following treatment with xEFN peptides. RGCs were isolated as described above and plated onto 24 well plates at a concentration of 4×10^4 cells/well for short-term (48 h) experiments, or into 96-well plates at a concentration of 1,000 cells/well for long-term (6 days) experiments in an Incucyte Zoom (Essen Biosciences) instrument for live cell imaging. […] For the short-tem experiment, cells were fixed in 4% paraformaldehyde for 5 minutes, permeabilized using 0.05% Triton X-100, blocked with 5% fetal bovine serum, and incubated with primary antibody against Tubulin Beta 3 Class III (TUBB3) overnight at 4° C. Cells were then washed 3×5 min with PBS and incubated with AlexaFluor488 secondary antibody for 2 h at room temperature. Cells were mounted using SlowFade Gold Antifade mounting media with DAPI (ThermoFisher) and imaged using an EVOS FL automated fluorescent microscope (ThermoFisher). Dendrite measurements and analysis was performed by a blinded investigator using ImageJ software and the Sholl analysis plugin. […] Neurite sprouting and extension were quantified using the automated Incucyte Zoom NeuroTrack Processing algorithm for real-time, label-free neurite segmentation and quantitation (FIG. 13).

[2] = tested on: phosphorylated Rac1; assay: Western blot of phosphorylated Rac1 in mRGCs; assay type: cell-based, mouse; conditions: 500 nM
Procedure: (§1) On day 4, cells were treated with pre-clustered recombinant mouse EfnA5-His ligand [(+) Control, using anti-His_Tag antibody for 30 minutes] for 2 hours. Cells were then lysed in RIPA buffer containing protease and phosphatase inhibitor cocktails and maintained on ice. Protein was quantified using a BCA assay, and 10 μg of total protein was run on a TGX stain-free Any kD gel (BioRad) and transferred using the trans-blot turbo system (BioRad). Following transfer and blocking in 5% nonfat milk for 1 h, blots were probed with antibodies against RhoA, phosphorylated Rac1, ARHGEF15, Ephexin-1, or beta-actin as an endogenous loading control overnight at 4° C. Blots were then washed 3×5 min in PBS-T and incubated in the appropriate HRP-conjugated secondary antibody for 2 h at room temperature. Blots were imaged using chemiluminescent ECL substrate (Pierce) on a BioRad ChemiDoc MP imaging system and software.

[3] = tested on: ARHGEF15 (Ephexin-5); assay: Western blot of ARHGEF15 in mRGCs; assay type: cell-based, mouse; conditions: 500 nM
Procedure: as §1

[4] = tested on: mouse RGC growth cones; assay: RGC growth cone collapse analysis; assay type: cell-based; conditions: 500 nM, 4 days, mouse RGC cultures
Procedure: One of the first signs of neuronal dysfunction is axonal growth cone collapse, and it is one of the mechanisms through which Eph-receptors exert their repulsive stimuli for axonal guidance. […] At the 48 h time point, cells were stimulated by the addition of 2 μg of pre-clustered recombinant mouse EfnA5-His (R&D Systems) for 1 hour. Following this stimulation, cells were fixed in 4% paraformaldehyde for 5 minutes, permeabilized with 0.05% Triton X-100, and blocked with 5% FBS for 1 h. Cells were then incubated in primary antibody against TUBB3 overnight at 4° C., washed, and incubated in AlexaFluor 488-conjugated secondary for 2 h at room temperature. After washing, cell cytoskeleton was counterstained with AlexaFluor 594-conjugated phalloidin for 30 min at 37° C. (ThermoFisher) and mounted with SlowFade Gold Anti-fade media with DAPI. Cells were then imaged using an EVOS FL Auto fluorescent microscope. Images were analyzed in ImageJ by a blinded investigator and a growth cone collapse was calculated manually.

[5] = tested on: RGCs and visual function after optic neuropathy onset; assay: Ultrasonic shockwave optic nerve injury model (SI-TON): RGC survival, PERG, flash ERG; assay type: in vivo, mouse
Procedure: In this example, the effect of xEFN peptide administration on the visual function of mice in an animal model that more closely resembled the human manifestation and progression of visual dysfunction following the onset of optic neuropathy was assessed. […] Visual function was measured at 2 and 4 weeks post optic nerve injury in all groups using pattern electroretinogram (PERG) to measure RGC function, as well as flash electroretinogram (ERG) to assess rod and cone functionality.

[6] = supplemented RGC cultures, 48 h

Sequence: FTIKFQEFSPNLWGL [xEFN_RBD3]
- average axonal length ([1]; 500 nM, 48 h of culture, compared to vehicle (PBS) treated controls): 302.16+/−40.24%
- axonal extension ([1]; isolated RGCs): significantly increases
- dendritic arbor complexity ([1]; isolated RGCs): significantly increases
- neurite sprouting ([1]; isolated RGCs): significantly increases
- average neurites/RGC soma [1, 6]: 3.43+/−0.16 neurites/RGC
- median total neurite length [1, 6]: 1034.68 (range: 486.26-2759.84) μm/cell
- phosphorylation of Rac1 by pre-clustered ephrinA5 ligand stimulation [2]: inhibited
- ARHGEF15 (Ephexin-5) level [3]: decrease
- number of collapsed growth cones [4]: significant decrease
- PERG amplitude over baseline recordings ([5]; 2 weeks post optic nerve injury): decline
- visual response versus vehicle (PBS) treated animals ([5]; 4 week assessment): significantly better
- RGC survival compared to vehicle treated controls ([5]; 4 weeks post injury): significant survival effect
- visual function (PERG) at the 4 week assessment ([5]; 4 weeks post optic nerve injury): improved
